The nature of this data set: Oral bioavailability study in dogs (plasma levels of compound of formula I). Conditions: dog; oral administration to dogs; plasma level of compound of formula I. It is filed as in vivo. How it is done:
Suitable amount of amorphous dispersion of Example I and the crystalline form of compound of formula I suspended in a vehicle were administered orally to dogs.
Blood samples were withdrawn at various time intervals and the plasma levels of compound of formula I were recorded. The Cmax, AUC0 to t and AUC0-∞, in plasma are tabulated below.

For the compound `Cc1ccc(C(=O)NNC(=O)c2c(C)cccc2Cl)cc1C#Cc1cnc2ccccc2c1` [Compound of formula I in a vehicle, 4-Methyl-3-quinolin-3-ylethynyl-benzoic acid N′-(2-chloro-6-methyl-benzoyl)hydrazide], the AUC(0-inf) turned out to be 1190 ng·h/mL, the AUC(0-t) turned out to be 1070 ng·h/mL and the maximum concentration (Cmax) was found to be 282 ng/mL.

For the origin of these results see US12194153B2, “Amorphous dispersion of 4-methyl-3-quinolin-3-ylethynyl-benzoic acid n′-(2-chloro-6-methyl-benzoyl) hydrazide” (SUN PHARMA ADVANCED RESEARCH COMPANY LIMITED, priority 2017, dated 2025).
